Laboratory results: US11572588B2, “Methods of evaluating treatment efficacy and/or treatment duration in mycobacterial diseases” (priority 2017, dated 2023)

Test system: M. tuberculosis Erdman strain
Assay: highly lethal in vitro drug exposure of log-phase M. tuberculosis; killing and pre-rRNA/rRNA by RNAseq and ddPCR
Assay type: cell-based
Details: for pre-rRNA in M tuberculosis that survived exposure (FIG. 5, RNAseq reads): 48 h lethal exposure; for M. tuberculosis killed: 48 h of exposure, lethal dose, log phase culture; for 16S normalized counts, Transcripts per Million (TPM) / 23S normalized counts, Transcripts per Million (TPM) / ETS1 normalized counts, Transcripts per Million (TPM) / ITS1 normalized counts, Transcripts per Million (TPM) / ITS1/23S, Pre-RNA/23S (×10^4) / ETS1/23S, Pre-RNA/23S (×10^4): RNAseq; for ITS1/23S, Pre-RNA/23S (×10^4): control 466; for ETS1/23S, Pre-RNA/23S (×10^4): control 514; for effect on ETS1 and ITS1: relative to control
[1] = lethal in vitro exposure, Day 2
[2] = lethal in vitro exposure, Day 7
[3] = lethal in vitro exposure, Day 5

| SMILES | pre-rRNA in M tuberculosis that survived exposure (FIG. 5, RNAseq reads) | M. tuberculosis killed | 16S normalized counts, Transcripts per Million (TPM) [1] | 23S normalized counts, Transcripts per Million (TPM) [1] | ETS1 normalized counts, Transcripts per Million (TPM) [1] | ITS1 normalized counts, Transcripts per Million (TPM) [1] | ITS1/23S, Pre-RNA/23S (×10^4) [1] | ETS1/23S, Pre-RNA/23S (×10^4) [1] | 16S normalized counts, Transcripts per Million (TPM) [2] | 23S normalized counts, Transcripts per Million (TPM) [2] | ETS1 normalized counts, Transcripts per Million (TPM) [2] | ITS1 normalized counts, Transcripts per Million (TPM) [2] | ITS1/23S, Pre-RNA/23S (×10^4) [2] | ETS1/23S, Pre-RNA/23S (×10^4) [2] | 16S normalized counts, Transcripts per Million (TPM) [3] | 23S normalized counts, Transcripts per Million (TPM) [3] | ETS1 normalized counts, Transcripts per Million (TPM) [3] | ITS1 normalized counts, Transcripts per Million (TPM) [3] | ITS1/23S, Pre-RNA/23S (×10^4) [3] | ETS1/23S, Pre-RNA/23S (×10^4) [3] | also measured |
| --- | --- | --- | --- | --- | --- | --- | --- | --- | --- | --- | --- | --- | --- | --- | --- | --- | --- | --- | --- | --- | --- |
| NNC(=O)c1ccncc1 [Isoniazid, isoniazid] | abundant pre-rRNA | 99.99% | 423,197 TPM | 556,210 TPM | 12,092 TPM | 8,502 TPM | 153 ×10^4 | 217 ×10^4 | 451,670 TPM | 519,579 TPM | 16,987 TPM | 11,763 TPM | 226 ×10^4 | 327 ×10^4 | – | – | – | – | – | – | decrease of ETS1/23S (lethal in vitro exposure): ~50%; decrease of ITS1/23S (lethal in vitro exposure): ~50% |
| [H]/N=C(/N)N[C@H]1[C@H](O)[C@@H](O)[C@H](O[C@@H]2O[C@@H](C)[C@](O)(C=O)[C@H]2O[C@@H]2O[C@@H](CO)[C@H](O)[C@@H](O)[C@@H]2NC)[C@@H](N/C(N)=N\[H])[C@@H]1O [Streptomycin, streptomycin] | abundant pre-rRNA | 99.99% | 453,930 TPM | 430,311 TPM | 78,749 TPM | 37,010 TPM | 860 ×10^4 | 1,830 ×10^4 | – | – | – | – | – | – | 406,987 TPM | 488,000 TPM | 72,994 TPM | 32,019 TPM | 656 ×10^4 | 1,496 ×10^4 | effect on ETS1 and ITS1 (lethal in vitro exposure): increased ETS1 and ITS1 |
| COc1nc2ccc(Br)cc2cc1[C@@H](c1ccccc1)[C@@](O)(CCN(C)C)c1cccc2ccccc12 [Bedaquiline, bedaquiline] | negligible pre-rRNA | ~99.9% | 343,978 TPM | 654,924 TPM | 548 TPM | 551 TPM | 8.4 ×10^4 | 8.4 ×10^4 | 208,644 TPM | 788,154 TPM | 1,778 TPM | 1,425 TPM | 18.1 ×10^4 | 22.6 ×10^4 | – | – | – | – | – | – | decrease of ETS1/23S relative to control (lethal in vitro exposure): > 20 fold; decrease of ITS1/23S relative to control (lethal in vitro exposure): > 20 fold |
| CO[C@H]1/C=C/O[C@@]2(C)Oc3c(C)c(O)c4c(O)c(c(/C=N/N5CCN(C)CC5)c(O)c4c3C2=O)NC(=O)/C(C)=C\C=C\[C@H](C)[C@H](O)[C@@H](C)[C@@H](O)[C@@H](C)[C@H](OC(C)=O)[C@@H]1C [Rifampin, rifampin] | negligible pre-rRNA | 99.99% | 375,111 TPM | 624,759 TPM | 58 TPM | 72 TPM | 1.15 ×10^4 | 0.92 ×10^4 | – | – | – | – | – | – | 306,538 TPM | 693,196 TPM | 30 TPM | 235 TPM | 3.39 ×10^4 | 0.44 ×10^4 | decrease of ETS1/23S relative to control (lethal in vitro exposure): > 100 fold; decrease of ITS1/23S relative to control (lethal in vitro exposure): > 100 fold; effect on ETS1 and ITS1 (lethal in vitro exposure): nearly complete abrogated ETS1 and ITS1 |
